Patent US7482347B2, “Piperazine derivatives with CCR-3 inhibiting activity” (priority 2004, dated 2009)

Biological target: T1, human CCR-3 (Homo sapiens, UniProt P51677)
T1 construct: expressed in transfected cells; membranes prepared
T1 sequence (P51677 1-355): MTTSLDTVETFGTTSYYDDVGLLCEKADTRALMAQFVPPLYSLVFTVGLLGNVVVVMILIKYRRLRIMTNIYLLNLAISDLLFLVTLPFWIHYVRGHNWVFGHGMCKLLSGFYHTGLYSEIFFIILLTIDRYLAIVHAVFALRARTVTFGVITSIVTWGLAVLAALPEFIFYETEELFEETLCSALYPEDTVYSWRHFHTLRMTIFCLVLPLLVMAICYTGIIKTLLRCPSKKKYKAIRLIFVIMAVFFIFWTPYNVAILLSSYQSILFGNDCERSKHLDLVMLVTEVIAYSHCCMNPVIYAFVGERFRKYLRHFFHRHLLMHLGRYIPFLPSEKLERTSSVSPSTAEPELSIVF
Assay: [125I]-human eotaxin binding SPA assay on membranes of RBL-2H3 cells stably expressing CCR3
Conditions: membranes of RBL-2H3 cells expressing CCR3, 50 pM [125I]-human eotaxin, 4 hours at room temperature, read-out: IC50 (inhibition of binding of [125I]-human eotaxin to CCR-3)
Excerpt: Recombinant cells expressing human CCR-3 are captured by wheatgerm agglutinin (WGA) polyvinyltoluidene (PVT) SPA beads (available from Amersham), through a specific interaction between the WGA and carbohydrate residues of glycoproteins on the surface of the cells. [^125I]-human eotaxin (available from Amersham) binds specifically to CCR-3 receptors bringing the [^125I]-human eotaxin in close proximity to the SPA beads. Emitted â-particles from the [^125I]-human eotaxin excite, by its proximity, the fluorophore in the beads and produce light.
Preparation of Assay Buffer: 5.96 g HEPES and 7.0 g sodium chloride are dissolved in distilled water and 1 M aqueous CaCl2 (1 ml) and 1M aqueous MgCl2 (5 ml) are added. The pH is adjusted to 7.6 with NaOH and the solution made to a final volume of 1 l using distilled water. 5 g bovine serum albumin and 0.1 g sodium azide are then dissolved in the solution and the resulting buffer stored at 4° C. A COMPLETE™ protease inhibitor cocktail tablet (available from Boehringer) is added per 50 ml of the buffer on the day of use. […]
The assay is performed in a final volume of 250 μl per well of an OPTIPLATE™ microplate (ex Canberra Packard). […] The resulting scintillations are counted using a Canberra Packard TopCount, each well being counted for 1 minute. […]

SMILES | IC50 [nM]
Cc1noc(C)c1S(=O)(=O)N1CCC(CN2CCN(Cc3ccc(F)cc3)CC2)CC1 [Example 1, 1-[1-(3,5-Dimethylisoxazole-4-sulfonyl)-piperdin-4-yl-methyl]-4-(4-fluorobenzyl)-piperazine] | 257
COc1ccc(OC)c(S(=O)(=O)N2CCC(CN3CCN(Cc4ccc(F)cc4)CC3)CC2)c1 [Example 3, 1-[1-(2,5-dimethoxybenzenesulfonyl)piperidinyl-4-ylmethyl]-4-(4-fluorobenzyl)piperazine] | 56
